# Data published in the Biogen ADME set (Fang et al. 2023).
# Conditions: for aqueous solubility: pH 6.8
Compound,MDR1-MDCK efflux ratio,"intrinsic clearance, human liver microsomes","intrinsic clearance, rat liver microsomes",aqueous solubility,"fraction unbound, human plasma","fraction unbound, rat plasma"
CC(=O)N1CCC(Cn2ccnc2-c2cc3ccccc3s2)CC1,14,46.5 mL/min/kg,357 mL/min/kg,35.2 µg/mL,,
c1ccc(Cc2ccccc2-c2nnc(-c3cccnc3)o2)cc1,0.45,,,0.22 µg/mL,,
O=C(O)/C=C/c1ccc(Cn2ccnc2)cc1,3,≤ 4.74 mL/min/kg,≤ 10.7 mL/min/kg,50.6 µg/mL,,
CSc1ccc(-c2ccc3n(c2=O)C[C@H]2C[C@@H]3CN(C(=O)c3ccncc3)C2)cc1,44,54 mL/min/kg,357 mL/min/kg,37.5 µg/mL,,
C1CCN(c2nc(NC3CC3)nc(N3CCCCC3)n2)CC1,0.301,,,0.62 µg/mL,,
Cc1ccc2[nH]c(C3CCN(C)CC3)nc2c1,2.88,88.3 mL/min/kg,685 mL/min/kg,57.3 µg/mL,,
Cc1ccc(NC(=O)CN2CCCC(c3nc4ccccc4o3)C2)cc1C (stereo not drawn),1.08,216 mL/min/kg,2610 mL/min/kg,10 µg/mL,,
CC(C)c1noc(CNC(=O)N2C[C@H]3C[C@@H](C2)c2cccc(=O)n2C3)n1,3.14,7.35 mL/min/kg,73.7 mL/min/kg,,,
O=c1c2cccnc2ncn1[C@H]1CCCc2ccccc21,0.837,≤ 4.74 mL/min/kg,119 mL/min/kg,,,
N#CCn1c(C(=O)O)cc2ccccc21,,,,41.5 µg/mL,,
CC(=O)Nc1ccc(C(=O)N2CCCCC2c2nc(N)ncc2-c2ccc(Cl)cc2)cc1 (stereo not drawn),106,40.7 mL/min/kg,643 mL/min/kg,57.8 µg/mL,0.0395,0.0355
COc1ccc(-c2cccc(C3CCCN(C(=O)C4CCCC4)C3)n2)cc1 (stereo not drawn),0.717,175 mL/min/kg,1980 mL/min/kg,2.45 µg/mL,,
Cc1nnc(-c2cccc(C(=O)O)c2)o1,,≤ 4.74 mL/min/kg,≤ 10.7 mL/min/kg,34.4 µg/mL,,
CCC(=O)NCc1ccnc(N(C)C)c1,0.879,≤ 4.74 mL/min/kg,≤ 10.7 mL/min/kg,30.6 µg/mL,,
N#CC1(CN2CCc3cc(-c4ccccc4)oc3C2)CC1,0.273,72.7 mL/min/kg,503 mL/min/kg,30.3 µg/mL,,
Cn1cc(CN2CCc3nc4ccccc4c(=O)n3CC2)cn1,2.78,≤ 4.74 mL/min/kg,19.9 mL/min/kg,,,
Oc1cncc(/C=C/c2nc(-c3ccncc3)no2)c1,,31.8 mL/min/kg,239 mL/min/kg,,,
CC(C(=O)Nc1ccccc1)N1CCCN(c2nccs2)CC1 (stereo not drawn),0.926,460 mL/min/kg,2020 mL/min/kg,37.1 µg/mL,,
C[C@@]12CCCN1C(=O)[C@H](C1CCCCC1)NC2=O,2.65,≤ 4.74 mL/min/kg,20.8 mL/min/kg,,,
COc1cc(NC(=O)c2ccc(F)cc2C)ncn1,0.558,8.37 mL/min/kg,49.1 mL/min/kg,15.8 µg/mL,,
N#Cc1cccnc1NCCc1cn2c(n1)CCCC2,1.33,11.5 mL/min/kg,2440 mL/min/kg,52.4 µg/mL,,
CN1CCN(c2cccc(C#N)n2)CC1,,≤ 4.74 mL/min/kg,617 mL/min/kg,,,
COC(=O)Nc1nc2ccccc2[nH]1,,,,8.05 µg/mL,,
Cc1cccc(/C=N/Nc2cc(N3CCOCC3)nc(OCCc3ccccn3)n2)c1,0.917,130 mL/min/kg,,,0.00283,0.0053
CC(C)N(CCCNC(=O)Nc1ccc(C(C)(C)C)cc1)C[C@@H]1O[C@@H](n2cc(Br)c3c(N)ncnc32)[C@H](O)[C@H]1O,17,354 mL/min/kg,2010 mL/min/kg,,,
Cc1ccc(NC(=O)CN2C(=O)CN(C)C2=O)cc1C,3.8,≤ 4.74 mL/min/kg,62.9 mL/min/kg,,,
CCC(=O)N1CCN(c2ccc(Cl)cc2NC(=O)COc2ccccc2)CC1,0.871,88.4 mL/min/kg,1840 mL/min/kg,,0.0178,

# Next, values leading:
MDR1-MDCK efflux ratio,"intrinsic clearance, human liver microsomes","intrinsic clearance, rat liver microsomes",aqueous solubility,"fraction unbound, human plasma","fraction unbound, rat plasma",Compound
,82.2 mL/min/kg,216 mL/min/kg,,,,Nc1ccc(Nc2ncc3cnn(C4CCCCCC4)c3n2)cn1
0.464,,,0.15 µg/mL,,,COc1ccc2nc(C(=O)Nc3cnc4c(cnn4C(C)C)c3)ccc2c1
,,,,0.201,0.0419,CC(C)[C@@](C)(O)[C@@H]1CN(c2nc(-c3n[nH]c4ncccc34)c(F)cc2Cl)CCN1
,11.1 mL/min/kg,488 mL/min/kg,,,,O=C1OCCN1CCN1CCC(c2cc3ccccc3[nH]2)CC1
0.617,39.6 mL/min/kg,793 mL/min/kg,31.6 µg/mL,,,Cc1cc(NC(=O)c2cccs2)no1
0.696,30.7 mL/min/kg,996 mL/min/kg,,,,COCC1(CNS(=O)(=O)c2ccccc2)CCC1
2.28,13.2 mL/min/kg,107 mL/min/kg,50.9 µg/mL,,,CN(CCN1CCOC1=O)C(=O)c1cc2cc(Br)ccc2o1
0.634,≤ 4.74 mL/min/kg,30.1 mL/min/kg,,,,N#Cc1c(F)cccc1Oc1cccnc1
,≤ 4.74 mL/min/kg,≤ 10.7 mL/min/kg,,,,COc1cc2cc(N)c(C3CCNCC3)nc2cc1OC
0.607,6.55 mL/min/kg,≤ 10.7 mL/min/kg,44.8 µg/mL,,,Cc1ccccc1-n1nc(C(C)(C)C)cc1N
0.666,134 mL/min/kg,3140 mL/min/kg,,,,CC(C)OCCS(=O)(=O)N1CCc2ccccc2CC1
0.117,,,0.44 µg/mL,,,Cc1cc(F)ccc1NC(=O)c1cccc2cccnc12
0.866,108 mL/min/kg,1980 mL/min/kg,2.08 µg/mL,,,O=C(CCc1nnc(-c2ccsc2)o1)N1CCCc2cc(F)c(F)cc21
0.761,270 mL/min/kg,1280 mL/min/kg,,,,O=C1CC(N2CCCN(c3ccc(C(F)(F)F)cn3)CC2)C(=O)N1c1ccccc1 (stereo not drawn)
1.18,,,0.45 µg/mL,,,CCN(c1ccccc1)S(=O)(=O)c1ccc(C(=O)Nc2ccccc2C(C)=O)cc1
1.53,163 mL/min/kg,3200 mL/min/kg,,,,Cc1nn(CCNS(=O)(=O)N2CCCCC2)c(C)c1C

MDR1-MDCK efflux ratio,"intrinsic clearance, human liver microsomes","intrinsic clearance, rat liver microsomes",aqueous solubility,"fraction unbound, human plasma","fraction unbound, rat plasma",Compound
0.683,126 mL/min/kg,445 mL/min/kg,34.9 µg/mL,,,O=C(c1ccccc1)N1CCN(C(=O)c2ccc(-c3ccccc3Cl)o2)CC1
0.847,18.5 mL/min/kg,506 mL/min/kg,45 µg/mL,,,Cc1nn(C)c2nc(N3CCN(C)C[C@@H]3c3ccccc3)sc12
93.7,87.4 mL/min/kg,529 mL/min/kg,,,,Cc1n[nH]c(C)c1CCCN(C)c1cncc(C(=O)N(C)C)n1
,9.54 mL/min/kg,19.2 mL/min/kg,1.49 µg/mL,,,O=C(Nc1ccccc1-c1cn2c(CN3CCNCC3)csc2n1)c1cnc2ccccc2n1
22.3,32.1 mL/min/kg,999 mL/min/kg,49.1 µg/mL,,,CC(C)c1nc(O)c2nnn(C[C@@H]3CCCN(Cc4cccs4)C3)c2n1
0.71,107 mL/min/kg,2090 mL/min/kg,,,,Cc1ccc(S(=O)(=O)N2CCOc3ccncc32)cc1
0.659,21.3 mL/min/kg,,,0.312,,CNc1nc(C)cc(C(=O)Nc2ccc3[nH]ncc3c2)n1
0.961,151 mL/min/kg,2520 mL/min/kg,29.1 µg/mL,,,CSc1ccc(CN(CCO)C(=O)CCc2cccc(F)c2)cc1
56.3,51 mL/min/kg,120 mL/min/kg,,,,CC1=C(C(=O)Nc2cc3cn[nH]c3cc2F)C(c2ccc(C(F)(F)F)cc2)CC(=O)N1 (stereo not drawn)
9.31,155 mL/min/kg,1170 mL/min/kg,1.5 µg/mL,,,CN1C(=O)COc2ccc(NC(=O)CCN3C(=O)COc4ccc(Cl)cc43)cc21
38.2,92 mL/min/kg,279 mL/min/kg,59.1 µg/mL,,,CN(C)CCN(Cc1ccccc1)C(=O)CCC(=O)Nc1ncc(-c2ccccc2)n1C
43.2,≤ 4.74 mL/min/kg,57 mL/min/kg,,,,c1ccc(Nc2nc(N3CCNCC3)nc(N3CCOCC3)n2)cc1
0.681,30.3 mL/min/kg,121 mL/min/kg,30.4 µg/mL,,,CCSCc1nc(N)c2ccccc2n1
1.81,21.5 mL/min/kg,247 mL/min/kg,,,,CS(=O)(=O)NC[C@H]1CC[C@H](Nc2nc3c(s2)CCSc2ccccc2-3)CC1
,≤ 4.74 mL/min/kg,461 mL/min/kg,41.3 µg/mL,,,NC(=O)CN1CCC(CCc2ccccc2)CC1
20,,,80.4 µg/mL,,,Cc1ccc(S(=O)(=O)Nc2ccc3c(c2)c(C(=O)C(F)(F)F)cn3CC(=O)N[C@@H](CC(C)C)C(=O)O)cc1
